Reference: ChEMBL document CHEMBL1136657, “Novel ether derivatives of mannopeptimycin glycopeptide antibiotic” (2003)
Values after ≈ are worked out from the molar mass of the structure shown. One block for each compound: values may come before it.

What was measured:
Staphylococcus aureus [1] = experiment: Minimum inhibitory concentration against Staphylococcus aureus was determined; type: functional
Streptococcus = experiment: Minimum inhibitory concentration against Streptococcus species. was determined; type: functional
Enterococcus sp. = experiment: Minimum inhibitory concentration against Enterococcus species. was determined; type: functional
[2] = Minimum inhibitory concentration against SCN (GC 4549) was determined; type: functional
Staphylococcus aureus [3] = experiment: Minimum inhibitory concentration against Staphylococcus aureus (GC 1131) was determined; type: functional
Escherichia coli [4] = experiment: Minimum inhibitory concentration against Escherichia coli (GC 4564) was determined; type: functional
Pseudomonas aeruginosa = experiment: Minimum inhibitory concentration against Pseudomonas aeruginosa (GC 2214) control was determined; type: functional
Escherichia coli [5] = experiment: Minimum inhibitory concentration against Escherichia coli (GC 2203) was determined; type: functional
Streptococcus pyogenes = experiment: Minimum inhibitory concentration against Streptococcus pyogenes (GC 4563) was determined; type: functional
Streptococcus agalactiae = experiment: Minimum inhibitory concentration against Streptococcus agalactiae (GC4564) was determined; type: functional
Staphylococcus aureus [6] = experiment: Minimum inhibitory concentration against Staphylococcus aureus (GC 2216) was determined; type: functional
Enterococcus faecalis [7] = experiment: Minimum inhibitory concentration against Enterococcus faecalis (GC 2242) was determined; type: functional
Enterococcus faecalis [8] = experiment: Minimum inhibitory concentration against Enterococcus faecalis (GC 4554) was determined; type: functional
Streptococcus pneumoniae [9] = experiment: Minimum inhibitory concentration against Streptococcus pneumoniae (GC 4565) was determined; type: functional
Staphylococcus aureus [10] = experiment: Minimum inhibitory concentration against Staphylococcus aureus (GC 4543) was determined; type: functional
Enterococcus faecalis [11] = experiment: Minimum inhibitory concentration against Enterococcus faecalis (GC 4552) was determined; type: functional
[12] = Minimum inhibitory concentration against SCN (GC 4547) was determined; type: functional
Streptococcus pneumoniae [13] = experiment: Minimum inhibitory concentration against Streptococcus pneumoniae (GC 1894) was determined; type: functional
Staphylococcus aureus [14] = experiment: Minimum inhibitory concentration against Staphylococcus aureus (GC 3051) was determined; type: functional
Enterococcus faecalis [15] = experiment: Minimum inhibitory concentration against Enterococcus faecalis (GC 4553) was determined; type: functional
Enterococcus faecium [16] = experiment: Minimum inhibitory concentration against Enterococcus faecium (GC 4557) was determined; type: functional
Staphylococcus aureus [17] = experiment: Minimum inhibitory concentration against Staphylococcus aureus smith; type: functional
Bacillus cereus = experiment: Minimum inhibitory concentration against Bacillus cereus (GC 4561) was determined; type: functional
Morganella morganii = experiment: Minimum inhibitory concentration against Morganella morganii (GC 4381) was determined; type: functional
Staphylococcus aureus [18] = experiment: Minimum inhibitory concentration against Staphylococcus aureus (GC 4545) was determined; type: functional
Enterococcus faecalis [19] = experiment: Minimum inhibitory concentration against Enterococcus faecalis (GC 4555) was determined; type: functional
Candida albicans = experiment: Minimum inhibitory concentration against Candida albicans GC 3066 was determined; type: functional
Micrococcus luteus = experiment: Minimum inhibitory concentration against Sarcina lutea (GC 4562) was determined; type: functional
[20] = Minimum inhibitory concentration against SCN (GC 4548) was determined; type: functional
[21] = Minimum inhibitory concentration against SCN (GC 6257) was determined; type: functional
Staphylococcus aureus [22] = experiment: Minimum inhibitory concentration against Staphylococcus aureus (GC 4544) was determined; type: functional
Staphylococcus aureus [23] = experiment: Minimum inhibitory concentration against Staphylococcus aureus (GC 3066) was determined; type: functional
[24] = tested on: Staphylococcus haemolyticus; experiment: Minimum inhibitory concentration against Staphylococcus haemolyticus (GC 4546) was determined
Enterococcus avium = experiment: Minimum inhibitory concentration against Enterococcus avium (GC 4558) was determined; type: functional
Enterococcus faecium [25] = experiment: Minimum inhibitory concentration against Enterococcus faecium (GC 4556) was determined; type: functional
Mus musculus = experiment: In vivo activity against Staphylococcus aureus smith was determined after iv administration in mice; type: functional
Escherichia coli [26] = experiment: Minimum inhibitory concentration against Escherichia coli (GC 4560) was determined; type: functional
[27] = Minimum inhibitory concentration against SCN (GC 4551) was determined; type: functional
Staphylococcus aureus [28] = experiment: Minimum inhibitory concentration against Staphylococcus aureus (GC 4542) was determined; type: functional
Streptococcus pneumoniae [29] = experiment: Minimum inhibitory concentration against Streptococcus pneumoniae (GC 6242) was determined; type: functional
Enterococcus faecalis [30] = experiment: Minimum inhibitory concentration against Enterococcus faecalis (GC 3059) was determined; type: functional
Enterococcus faecium [31] = experiment: Minimum inhibitory concentration against Enterococcus faecium (GC 2243) was determined; type: functional
Staphylococcus aureus [32] = experiment: Minimum inhibitory concentration against Staphylococcus aureus (GC 4541 was determined; type: functional
Enterococcus faecalis [33] = experiment: Minimum inhibitory concentration against Enterococcus faecalis (GC 2691) was determined; type: functional
Enterococcus faecalis [34] = experiment: Minimum inhibitory concentration against Enterococcus faecalis (GC 6189) was determined; type: functional

- MIC (Staphylococcus aureus [1]): 8 µg/mL (≈ 5.86 µM)
- MIC (Streptococcus): 8 µg/mL (≈ 5.86 µM)
- MIC (Enterococcus sp.): > 128 µg/mL
SMILES: CC(C)CC(=O)O[C@@H]1[C@@H](O[C@H]2[C@H](O)[C@H](O)[C@@H](Oc3ccc(C[C@H]4NC(=O)[C@H]([C@@H](C)c5ccccc5)NC(=O)CNC(=O)[C@H](CO)NC(=O)[C@@H]([C@@H](O)[C@@H]5CN=C(N)N5[C@H]5O[C@H](O)[C@@H](O)[C@H](O)[C@@H]5O)NC(=O)[C@H]([C@@H](O)[C@@H]5CN=C(N)N5)NC4=O)cc3)O[C@@H]2CO)O[C@H](CO)[C@@H](O)[C@@H]1O

- MIC [2]: 1 µg/mL (≈ 0.689 µM)
- MIC (Staphylococcus aureus [3]): 2 µg/mL (≈ 1.38 µM)
- MIC (Escherichia coli [4]): > 64 µg/mL
- MIC (Pseudomonas aeruginosa): 0.12 µg/mL (≈ 0.0827 µM)
- MIC (Escherichia coli [5]): 1 µg/mL (≈ 0.689 µM)
- MIC (Streptococcus pyogenes): 8 µg/mL (≈ 5.51 µM)
- MIC (Streptococcus agalactiae): 0.25 µg/mL (≈ 0.172 µM)
- MIC (Staphylococcus aureus [6]): 2 µg/mL (≈ 1.38 µM)
- MIC (Enterococcus faecalis [7]): 8 µg/mL (≈ 5.51 µM)
- MIC (Enterococcus faecalis [8]): 8 µg/mL (≈ 5.51 µM)
- MIC (Streptococcus pneumoniae [9]): 0.5 µg/mL (≈ 0.344 µM)
- MIC (Staphylococcus aureus [10]): 1 µg/mL (≈ 0.689 µM)
- MIC (Enterococcus faecalis [11]): 8 µg/mL (≈ 5.51 µM)
- MIC [12]: 1 µg/mL (≈ 0.689 µM)
- MIC (Streptococcus pneumoniae [13]): 8 µg/mL (≈ 5.51 µM)
- MIC (Staphylococcus aureus [14]): 0.12 µg/mL (≈ 0.0827 µM)
- MIC (Enterococcus faecalis [15]): 8 µg/mL (≈ 5.51 µM)
- MIC (Enterococcus faecium [16]): 8 µg/mL (≈ 5.51 µM)
- MIC (Staphylococcus aureus [17]): 1 µg/mL (≈ 0.689 µM)
- MIC (Bacillus cereus): 64 µg/mL (≈ 44.1 µM)
- MIC (Morganella morganii): > 64 µg/mL
- MIC (Staphylococcus aureus [18]): 1 µg/mL (≈ 0.689 µM)
- MIC (Enterococcus faecalis [19]): 8 µg/mL (≈ 5.51 µM)
- MIC (Candida albicans): > 64 µg/mL
- MIC (Micrococcus luteus): 2 µg/mL (≈ 1.38 µM)
- MIC [20]: 0.5 µg/mL (≈ 0.344 µM)
- MIC [21]: 0.5 µg/mL (≈ 0.344 µM)
- MIC (Staphylococcus aureus [22]): 2 µg/mL (≈ 1.38 µM)
- MIC (Staphylococcus aureus [23]): 2 µg/mL (≈ 1.38 µM)
- MIC (Enterococcus avium): 2 µg/mL (≈ 1.38 µM)
- MIC (Enterococcus faecium [25]): 8 µg/mL (≈ 5.51 µM)
- MIC (Escherichia coli [26]): > 64 µg/mL
- MIC [27]: 2 µg/mL (≈ 1.38 µM)
- MIC (Staphylococcus aureus [28]): 2 µg/mL (≈ 1.38 µM)
- MIC (Streptococcus pneumoniae [29]): ≤ 0.06 µg/mL
- MIC (Enterococcus faecalis [30]): 4 µg/mL (≈ 2.76 µM)
- MIC (Enterococcus faecium [31]): 8 µg/mL (≈ 5.51 µM)
- MIC (Staphylococcus aureus [32]): 1 µg/mL (≈ 0.689 µM)
- MIC (Enterococcus faecalis [33]): 0.25 µg/mL (≈ 0.172 µM)
- MIC (Enterococcus faecalis [34]): 4 µg/mL (≈ 2.76 µM)
SMILES: COc1ccc2cc(COC[C@H]3O[C@H](O[C@H]4[C@H](O)[C@H](O)[C@@H](Oc5ccc(C[C@H]6NC(=O)[C@H]([C@@H](C)c7ccccc7)NC(=O)CNC(=O)[C@H](CO)NC(=O)[C@@H]([C@@H](O)[C@@H]7CN=C(N)N7[C@H]7O[C@H](O)[C@@H](O)[C@H](O)[C@@H]7O)NC(=O)[C@H]([C@@H](O)[C@@H]7CN=C(N)N7)NC6=O)cc5)O[C@@H]4CO)[C@@H](O)[C@@H](O)[C@@H]3O)ccc2c1
- MIC [24]: 1 µg/mL (≈ 0.689 µM)
- ED50 (Mus musculus): 0.12 mg/kg

- MIC (Staphylococcus aureus [1]): 8 µg/mL (≈ 5.86 µM)
- MIC (Streptococcus): 8 µg/mL (≈ 5.86 µM)
- MIC (Enterococcus sp.): 64 µg/mL (≈ 46.9 µM)
SMILES: CC(C)CC(=O)O[C@@H]1[C@H](O)[C@@H](O[C@H]2[C@H](O)[C@H](O)[C@@H](Oc3ccc(C[C@H]4NC(=O)[C@H]([C@@H](C)c5ccccc5)NC(=O)CNC(=O)[C@H](CO)NC(=O)[C@@H]([C@@H](O)[C@@H]5CN=C(N)N5[C@H]5O[C@H](O)[C@@H](O)[C@H](O)[C@@H]5O)NC(=O)[C@H]([C@@H](O)[C@@H]5CN=C(N)N5)NC4=O)cc3)O[C@@H]2CO)O[C@H](CO)[C@H]1O

- MIC [2]: 1 µg/mL (≈ 0.689 µM)
- MIC (Staphylococcus aureus [3]): 4 µg/mL (≈ 2.76 µM)
- MIC (Escherichia coli [4]): 128 µg/mL (≈ 88.2 µM)
- MIC (Pseudomonas aeruginosa): > 128 µg/mL
- MIC (Escherichia coli [5]): 128 µg/mL (≈ 88.2 µM)
- MIC (Streptococcus pyogenes): 0.5 µg/mL (≈ 0.344 µM)
- MIC (Streptococcus agalactiae): 0.5 µg/mL (≈ 0.344 µM)
- MIC (Staphylococcus aureus [6]): 2 µg/mL (≈ 1.38 µM)
- MIC (Enterococcus faecalis [7]): 8 µg/mL (≈ 5.51 µM)
- MIC (Enterococcus faecalis [8]): 8 µg/mL (≈ 5.51 µM)
- MIC (Streptococcus pneumoniae [9]): 0.25 µg/mL (≈ 0.172 µM)
- MIC (Staphylococcus aureus [10]): 2 µg/mL (≈ 1.38 µM)
- MIC (Enterococcus faecalis [11]): 8 µg/mL (≈ 5.51 µM)
- MIC [12]: 2 µg/mL (≈ 1.38 µM)
- MIC (Streptococcus pneumoniae [13]): 0.12 µg/mL (≈ 0.0827 µM)
- MIC (Staphylococcus aureus [14]): 2 µg/mL (≈ 1.38 µM)
- MIC (Enterococcus faecalis [15]): 8 µg/mL (≈ 5.51 µM)
- MIC (Enterococcus faecium [16]): 0.25 µg/mL (≈ 0.172 µM)
- MIC (Bacillus cereus): 2 µg/mL (≈ 1.38 µM)
- MIC (Morganella morganii): > 128 µg/mL
- MIC (Staphylococcus aureus [18]): 2 µg/mL (≈ 1.38 µM)
- MIC (Enterococcus faecalis [19]): 8 µg/mL (≈ 5.51 µM)
- MIC (Candida albicans): > 64 µg/mL
- MIC (Micrococcus luteus): 0.25 µg/mL (≈ 0.172 µM)
- MIC [20]: 1 µg/mL (≈ 0.689 µM)
- MIC [21]: 1 µg/mL (≈ 0.689 µM)
- MIC (Staphylococcus aureus [22]): 4 µg/mL (≈ 2.76 µM)
- MIC (Staphylococcus aureus [23]): 2 µg/mL (≈ 1.38 µM)
- MIC (Enterococcus avium): 2 µg/mL (≈ 1.38 µM)
- MIC (Enterococcus faecium [25]): 8 µg/mL (≈ 5.51 µM)
- MIC (Escherichia coli [26]): 1 µg/mL (≈ 0.689 µM)
- MIC [27]: 2 µg/mL (≈ 1.38 µM)
- MIC (Staphylococcus aureus [28]): 1 µg/mL (≈ 0.689 µM)
- MIC (Streptococcus pneumoniae [29]): 0.25 µg/mL (≈ 0.172 µM)
- MIC (Enterococcus faecalis [30]): 8 µg/mL (≈ 5.51 µM)
- MIC (Enterococcus faecium [31]): 8 µg/mL (≈ 5.51 µM)
- MIC (Staphylococcus aureus [32]): 2 µg/mL (≈ 1.38 µM)
- MIC (Enterococcus faecalis [33]): 8 µg/mL (≈ 5.51 µM)
- MIC (Enterococcus faecalis [34]): 4 µg/mL (≈ 2.76 µM)
SMILES: COc1ccc2cc(CO[C@H]3[C@H](O)[C@@H](CO)OC(O[C@H]4[C@H](O)[C@H](O)[C@@H](Oc5ccc(C[C@H]6NC(=O)[C@H]([C@@H](C)c7ccccc7)NC(=O)CNC(=O)[C@H](CO)NC(=O)[C@@H]([C@@H](O)[C@@H]7CN=C(N)N7[C@H]7O[C@H](O)[C@@H](O)[C@H](O)[C@@H]7O)NC(=O)[C@H]([C@@H](O)[C@@H]7CN=C(N)N7)NC6=O)cc5)O[C@@H]4CO)[C@H]3O)ccc2c1 (stereo partly drawn)
- MIC [24]: 1 µg/mL (≈ 0.689 µM)
